The values that follow come from PubChem BioAssay AID1259407 (Chemical Carcinogenesis Research Information System (CCRIS), 2018).

Molecules are shown by their SMILES. Calls of active or inactive are those of the source. The rule behind the calls is not given here.

For this data set, the system named is CCRIS mutagenicity, Ames/micronucleus/aberration tests. Nature of the data set: CCRIS mutagenicity studies.
The mark [1] stands for this setting: Test System: AMES SALMONELLA TYPHIMURIUM, Strain/Indicator: TA98, Metabolic Activation: NONE, Method: STANDARD PLATE.
Where [2] appears, read: Test System: AMES SALMONELLA TYPHIMURIUM, Strain/Indicator: TA100, Metabolic Activation: NONE, Method: STANDARD PLATE.
The mark [3] stands for this setting: Test System: AMES SALMONELLA TYPHIMURIUM, Strain/Indicator: TA1535, Metabolic Activation: NONE, Method: STANDARD PLATE.
Setting [4] is: Test System: AMES SALMONELLA TYPHIMURIUM, Strain/Indicator: TA1537, Metabolic Activation: NONE, Method: STANDARD PLATE.
Setting [5] is: Test System: AMES SALMONELLA TYPHIMURIUM, Strain/Indicator: TA1538, Metabolic Activation: NONE, Method: STANDARD PLATE.
Where [6] appears, read: Test System: AMES SALMONELLA TYPHIMURIUM, Strain/Indicator: TA98, Metabolic Activation: RAT, LIVER, S-9, AROCLOR 1254, Method: STANDARD PLATE.
[7] abbreviates: Test System: AMES SALMONELLA TYPHIMURIUM, Strain/Indicator: TA100, Metabolic Activation: RAT, LIVER, S-9, AROCLOR 1254, Method: STANDARD PLATE.
The mark [8] stands for this setting: Test System: AMES SALMONELLA TYPHIMURIUM, Strain/Indicator: TA98, Metabolic Activation: NONE, Method: PREINCUBATION
The mark [9] stands for this setting: Test System: MOUSE LYMPHOMA, Strain/Indicator: L5178Y (TK+/TK-), Metabolic Activation: NONE, Method: SUSPENSION/PLATE.
Where [10] appears, read: Test System: MOUSE LYMPHOMA, Strain/Indicator: L5178Y (TK+/TK-), Metabolic Activation: RAT, LIVER, S-9, AROCLOR 1254, Method: SUSPENSION/PLATE.

For the molecule `COc1ccc2nc3cc(Cl)ccc3c(NCCCNCCCl)c2n1`, the mutagenic call is “active; positive” under setting [1]; “active; positive” under setting [2]; “inactive; negative” under setting [3]; “active; positive” (Test System: AMES SALMONELLA TYPHIMURIUM, Strain/Indicator: TA1536, Metabolic Activation: NONE, Method: STANDARD PLATE); “active; positive” under setting [4]; “active; positive” under setting [5]. Moreover, the mutagenic call (Test System: CHO/HGPRT, Strain/Indicator: CHO-K1-BH4, Metabolic Activation: NONE, Method: STANDARD PLATE) was “active; positive”.
As to `O=C1CCC(=O)N1c1ccc(Cl)cc1`, the mutagenic call is “inactive; negative” under setting [1], “inactive; negative” under setting [6], “inactive; negative” under setting [2] and “inactive; negative” under setting [7].
As to `CC1(C)S[C@@H]2[C@H](NC(=O)[C@H](N)c3ccccc3)C(=O)N2[C@H]1C(=O)O`, the mutagenic call runs as follows: (End Point: IN VITRO CHROMOSOMAL ABERRATIONS, Test System: CHO CELLS, Metabolic Activation: NONE) “inactive; negative; testing limited by solubility of chemical”; (End Point: IN VITRO CHROMOSOMAL ABERRATIONS, Test System: CHO CELLS, Metabolic Activation: RAT, LIVER, S-9, AROCLOR 1254) “inactive; negative; testing limited by solubility of chemical”; (Test System: AMES SALMONELLA TYPHIMURIUM, Strain/Indicator: TA98, Metabolic Activation: HAMSTER, LIVER, S-9, AROCLOR 1254, Method: PREINCUBATION) “inactive; negative”; under setting [8], “inactive; negative”; (Test System: AMES SALMONELLA TYPHIMURIUM, Strain/Indicator: TA98, Metabolic Activation: RAT, LIVER, S-9, AROCLOR 1254, Method: PREINCUBATION) “inactive; negative”; (Test System: AMES SALMONELLA TYPHIMURIUM, Strain/Indicator: TA100, Metabolic Activation: HAMSTER, LIVER, S-9, AROCLOR 1254, Method: PREINCUBATION) “inactive; negative”. Also, the mutagenic call is, setting by setting: (Test System: AMES SALMONELLA TYPHIMURIUM, Strain/Indicator: TA100, Metabolic Activation: NONE, Method: PREINCUBATION) “inactive; negative”; (Test System: AMES SALMONELLA TYPHIMURIUM, Strain/Indicator: TA100, Metabolic Activation: RAT, LIVER, S-9, AROCLOR 1254, Method: PREINCUBATION) “inactive; negative”; (Test System: AMES SALMONELLA TYPHIMURIUM, Strain/Indicator: TA1535, Metabolic Activation: HAMSTER, LIVER, S-9, AROCLOR 1254, Method: PREINCUBATION) “inactive; negative”; (Test System: AMES SALMONELLA TYPHIMURIUM, Strain/Indicator: TA1535, Metabolic Activation: NONE, Method: PREINCUBATION) “inactive; negative”; (Test System: AMES SALMONELLA TYPHIMURIUM, Strain/Indicator: TA1535, Metabolic Activation: RAT, LIVER, S-9, AROCLOR 1254, Method: PREINCUBATION) “inactive; negative”; (Test System: AMES SALMONELLA TYPHIMURIUM, Strain/Indicator: TA1537, Metabolic Activation: HAMSTER, LIVER, S-9, AROCLOR 1254, Method: PREINCUBATION) “inactive; negative”. Besides, the mutagenic call (Test System: AMES SALMONELLA TYPHIMURIUM, Strain/Indicator: TA1537, Metabolic Activation: NONE, Method: PREINCUBATION) is “inactive; negative”; the mutagenic call (Test System: AMES SALMONELLA TYPHIMURIUM, Strain/Indicator: TA1537, Metabolic Activation: RAT, LIVER, S-9, AROCLOR 1254, Method: PREINCUBATION) is “inactive; negative”; the mutagenic call under setting [9] was “inactive; negative”; the mutagenic call under setting [10] is “inactive; negative”.
As to `CCOCOCC`, the mutagenic call reads like this: (Test System: AMES SALMONELLA TYPHIMURIUM, Strain/Indicator: TA98, Metabolic Activation: HAMSTER, LIVER, S-9, AROCLOR 1254, Method: STANDARD PLATE) “inactive; negative”; under setting [1], “inactive; negative”; under setting [6], “inactive; negative”; (Test System: AMES SALMONELLA TYPHIMURIUM, Strain/Indicator: TA100, Metabolic Activation: HAMSTER, LIVER, S-9, AROCLOR 1254, Method: STANDARD PLATE) “inactive; negative”; under setting [2], “inactive; negative”; under setting [7], “inactive; negative”. For the same molecule, the mutagenic call was “inactive; negative” (Test System: AMES SALMONELLA TYPHIMURIUM, Strain/Indicator: TA1535, Metabolic Activation: HAMSTER, LIVER, S-9, AROCLOR 1254, Method: STANDARD PLATE); “inactive; negative” under setting [3]; “inactive; negative” (Test System: AMES SALMONELLA TYPHIMURIUM, Strain/Indicator: TA1535, Metabolic Activation: RAT, LIVER, S-9, AROCLOR 1254, Method: STANDARD PLATE); “inactive; negative” (Test System: AMES SALMONELLA TYPHIMURIUM, Strain/Indicator: TA1537, Metabolic Activation: HAMSTER, LIVER, S-9, AROCLOR 1254, Method: STANDARD PLATE); “inactive; negative” under setting [4]; “inactive; negative” (Test System: AMES SALMONELLA TYPHIMURIUM, Strain/Indicator: TA1537, Metabolic Activation: RAT, LIVER, S-9, AROCLOR 1254, Method: STANDARD PLATE). Also, the mutagenic call by setting is: (Test System: AMES SALMONELLA TYPHIMURIUM, Strain/Indicator: TA1538, Metabolic Activation: HAMSTER, LIVER, S-9, AROCLOR 1254, Method: STANDARD PLATE) “inactive; negative”; under setting [5], “inactive; negative”; (Test System: AMES SALMONELLA TYPHIMURIUM, Strain/Indicator: TA1538, Metabolic Activation: RAT, LIVER, S-9, AROCLOR 1254, Method: STANDARD PLATE) “inactive; negative”; under setting [9], “inactive; negative. reevaluation of results: negative”; under setting [10], “active; positive. reevaluation of results: positive”.
For the molecule `O=C(O)CC(Cl)C(=O)O` (centres undefined), the mutagenic call is “inactive; negative” (Test System: AMES SALMONELLA TYPHIMURIUM, Strain/Indicator: TA98, Metabolic Activation: NONE); “inactive; negative” (Test System: AMES SALMONELLA TYPHIMURIUM, Strain/Indicator: TA98, Metabolic Activation: RAT, LIVER, S-9, AROCLOR 1254); “inactive; negative” (Test System: AMES SALMONELLA TYPHIMURIUM, Strain/Indicator: TA100, Metabolic Activation: NONE); “inactive; negative” (Test System: AMES SALMONELLA TYPHIMURIUM, Strain/Indicator: TA100, Metabolic Activation: RAT, LIVER, S-9, AROCLOR 1254); “inactive; negative” (Test System: AMES SALMONELLA TYPHIMURIUM, Strain/Indicator: TA102, Metabolic Activation: NONE); “inactive; negative” (Test System: AMES SALMONELLA TYPHIMURIUM, Strain/Indicator: TA102, Metabolic Activation: RAT, LIVER, S-9, AROCLOR 1254). Besides, the mutagenic call (Test System: AMES SALMONELLA TYPHIMURIUM, Strain/Indicator: TA104, Metabolic Activation: NONE) is “inactive; negative” and the mutagenic call (Test System: AMES SALMONELLA TYPHIMURIUM, Strain/Indicator: TA104, Metabolic Activation: RAT, LIVER, S-9, AROCLOR 1254) was “inactive; negative”.
In the case of `O=[N+]([O-])c1cc2cccc3c4ccccc4c4cccc1c4c23`, the mutagenic call was “active; positive” (Test System: AMES SALMONELLA TYPHIMURIUM, Strain/Indicator: TA98, Metabolic Activation: NONE', Method: STANDARD PLATE) and “active; positive” under setting [2].
With `Cc1c2c(cc3ccccc13)-c1ccccc1C1NC21` (centres undefined), the mutagenic call was “active; positive” (Test System: AMES SALMONELLA TYPHIMURIUM, Strain/Indicator: TA97, Metabolic Activation: NONE, Method: PREINCUBATION); “active; positive” under setting [8]; “active; positive” under setting [1]; “active; positive” under setting [2]; “active; positive” (Test System: AMES SALMONELLA TYPHIMURIUM, Strain/Indicator: TA104, Metabolic Activation: NONE, Method: PREINCUBATION).
